Test results taken from patent publication US6399607B1, “Aminomethylene amide analogs of pyrazinamide with intracellular antimycobacterial activity against pyrazinamide-resistant mycobacteria combined with a rifamycin” (priority 1999, dated 2002).
Read-outs that look alike come from different tables or passages of the source.

Key:
Assay type in all cases: cell-based, Mycobacterium tuberculosis
M. tuberculosis [1] = system: M. tuberculosis; set-up: unit not given beside the values; settings: for MIC, M. tuberculosis ATCC 27294: ATCC 27294 = H37RV, strain susceptible to pyrazinamide; for MIC, M. tuberculosis ATCC 35822: ATCC 35822, isoniazid (INH)-resistant strain; for MIC, M. tuberculosis ATCC 35828: ATCC35828, PZA resistant strain; for MIC, M. tuberculosis MS 6210: MS6210, resistant clinical isolate
M. tuberculosis [2] = experiment: MIC in modified 7H10 broth against M. tuberculosis (Table 3); set-up: MIC, M. tuberculosis ATCC 35828: unit not given beside the values; settings: ATCC 35828 (PZA resistant), pH 5.8
[3] = system: PZA-resistant Mtb in macrophages; settings: FIG. 1; in comparison with PZA or the control
M. tuberculosis [4] = experiment: microbe, parasite or virus in culture; set-up: MIC, PZA-resistant strain at pH 6.0: unit not given beside the values; settings: for MIC, INH-resistant strain, pH 6.0 / MIC, PZA-resistant strain, pH 6.0 / MIC, INH-resistant strain, pH 6.8 / MIC, PZA-resistant strain, pH 6.8: 7H12 BACTEC broth
M. tuberculosis [5] = experiment: Influence of pH on MICs (Table 5); set-up: unit not given beside the values; settings: ATCC 35828 (PZA resistant)
M. tuberculosis [6] = system: M. tuberculosis

Row | Structure (SMILES) | MIC, M. tuberculosis ATCC 27294 (M. tuberculosis [1]) | MIC, M. tuberculosis ATCC 35822 (M. tuberculosis [1]) | MIC, M. tuberculosis ATCC 35828 (M. tuberculosis [1]) | MIC, M. tuberculosis MS 6210 (M. tuberculosis [1]) | MIC, M. tuberculosis ATCC 35828 (M. tuberculosis [2]) | MIC, INH-resistant strain, pH 6.0 (M. tuberculosis [4]; pH 6.0) | MIC, PZA-resistant strain, pH 6.0 (M. tuberculosis [4]; pH 6.0) | MIC, INH-resistant strain, pH 6.8 (M. tuberculosis [4]) | MIC, PZA-resistant strain, pH 6.8 (M. tuberculosis [4]) | MIC, ATCC 35828 pH 6.0 (M. tuberculosis [5]) | MIC, ATCC 35828 pH 6.8 (M. tuberculosis [5]) | MIC, PZA-resistant strain, pH 5.5 (M. tuberculosis [4]; PZA-resistant strain) | also measured
1 | CN(CNC(=O)c1cnccn1)Cc1ccccc1 [Compound 8, [(benzyl-methyl-amino)-methyl]-amide] | 100 | 100 | 100 | 33 | – | – | – | – | – | – | – | – | –
2 | CCCN(CCC)CNC(=O)c1cnccn1 [Compound 9, dipropylaminomethyl-amide] | 100 | 100 | 100 | 100 | – | – | – | – | – | – | – | – | –
3 | CCN(CC)CNC(=O)c1cnccn1 [Compound 2, pyrazine-2-carboxylic acid diethylaminomethyl-amide] | – | – | – | – | 1 | 100 g./ml | 100 g./ml | 100 g./ml | 100 g./ml | 100 | 100 | – | number of colony forming units (CFU) of M. tuberculosis from macrophages [3]: reduced the number of CFU
4 | NC(=O)c1cnccn1 [PZA, Pyrazinamide] | 33 | 33 | >300 | 100 | 2048 | 33 g./ml | >300 g./ml | >300 g./ml | >300 g./ml | >300 | >300 | > 300 g./ml | activity against susceptible strains by pH (M. tuberculosis [6]; pH 5.5, 6.0, 6.8): active against susceptible strains at pH 5.5 and 6.0 only, and not at pH 6.8; MIC, PZA-resistant strain at pH 6.0 (M. tuberculosis [4]; PZA-resistant strain, pH 6.0): > 300
5 | CN1CCN(CNC(=O)c2cnccn2)CC1 [Compound 7, (piperazin-1-ylmethyl)-amide] | 300 | 100 | 300 | 100 | – | – | – | – | – | – | – | – | –
6 | O=C(NCN1CCCC1)c1cnccn1 [Compound 1, pyrazine-2-carboxylic acid (pyrrolidin-1-ylmethyl)-amide] | – | – | – | – | 2 | 100 g./ml | 100 g./ml | 100 g./ml | 100 g./ml | 100 | 100 | 100 g./ml | –
7 | NC(=O)c1cnc(Cl)cn1 [Compound 5-Chloro-PZA, 5-chloro-pyrazinamide, reference compound] | – | – | – | – | 8 | – | – | – | – | – | – | – | –
8 | O=C(NCN1CCOCC1)c1cnccn1 [Compound 4, (morpholin-4-ylmethyl)-amide] | 100 | 33 | 100 | 100 | 16 | – | – | – | – | – | – | – | –
9 | O=C(NCN1CCOCC1)c1cnccn1 [MZA, morphazinamide] | – | – | – | – | – | 100 g./ml | 100 g./ml | 100 g./ml | 100 g./ml | 100 | 100 | 100 g./ml | activity at pH 6.8 compared with pH levels 5.5 and 6.0 (M. tuberculosis [6]; pH 6.8 v. 5.5 and 6.0): no different from or only slightly higher than at pH levels 5.5 and 6.0; MICs against susceptible strains at pH 5.5 and 6.0 compared with PZA (M. tuberculosis [6]; susceptible strains, pH 5.5 and 6.0): in the same range as those of PZA
10 | CCN(CC)CNC(=O)c1cnc(N(CC)CC)cn1 [Compound 17, 5-diethylamino-pyrazinoic acid diethylaminomethyl-amide] | – | – | – | – | 16 | – | – | – | – | – | – | – | –
